Experimental data as given in patent US12201619B2, “Compounds and methods for use in the treatment of microglia-mediated disorders” (NSC Therapeutics GmbH, priority 2018, dated 2025).
Positions count from the first letter of the chain named. “Also recorded” adds a separate entry of the source.

How the values were obtained:
[1] = target: T1, human M1 mAChR (Homo sapiens, UniProt P11229); experiment: cell-based; conditions: for calcium mobilization response relative to CCh: CHOM1 cells, 50 μM compound
T1 sequence (P11229 1-460): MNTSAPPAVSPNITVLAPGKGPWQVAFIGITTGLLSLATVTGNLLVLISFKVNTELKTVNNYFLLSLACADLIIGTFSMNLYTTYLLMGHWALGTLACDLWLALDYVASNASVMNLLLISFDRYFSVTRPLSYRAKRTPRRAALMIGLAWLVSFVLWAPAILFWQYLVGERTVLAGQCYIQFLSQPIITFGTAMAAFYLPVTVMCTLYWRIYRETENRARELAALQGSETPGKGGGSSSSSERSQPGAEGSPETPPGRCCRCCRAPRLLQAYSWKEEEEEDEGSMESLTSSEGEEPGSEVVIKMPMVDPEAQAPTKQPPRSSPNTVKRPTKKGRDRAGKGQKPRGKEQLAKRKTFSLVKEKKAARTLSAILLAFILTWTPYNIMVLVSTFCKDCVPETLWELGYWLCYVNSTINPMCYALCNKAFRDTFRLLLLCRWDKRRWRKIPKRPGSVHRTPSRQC
Experimental: Cells were routinely cultured in Dulbecco's Modified eagle medium (Gibco, UK) supplemented with 10% fetal bovine serum (FBS), 1×MEM non-essential amino-acid, […] Glutamine, 100μ/ml Penicillin, 0.1 mg/ml Streptomycin, 25 μg/ml Amphotericin B and 100 μg/ml G418 (Biological industries, Israel). Cells were kept in a humidified atmosphere at 37° C. in 5% CO2 and were passaged twice weekly by 2.5 mg/ml trypsin-EDTA (0.02%) solution (Biological industries, Israel) and re-suspended in fresh media.
Calcium fluorescence measurements were performed using a NOVOstar plate reader with an injector and a pipetting system (BMG Labtech, Ortenberg, Germany). At the day before the experiment Chinese Hamster Ovary (CHO) cells expressing human M1 mAChR subtypes (CHOM1) were harvested and rinsed with culture medium (see section “cell culture”, supra) without Phenol red and evenly plated into black-wall clear optical bottom 96-well plate (Nunc, Rochester NY, USA) at a density of 40,000 cells/well. Growth medium was removed and 80 μl of loading buffer, containing 2.5 mM probenecid, was carefully added (loading buffer prepared according to FLUO-4 NW calcium assay kit manual). The cell plate was incubated at 37° C. for 30 minutes; then at room temperature for an additional 30 minutes. EGTA (10 μl of 50 mM dissolved in HBSS) was added automatically to each well using the NOVOstar injector system followed by shaking of 1 minute (1 mm width, 600 rpm) and then incubated for another 10 minutes. HBSS alone or test compounds dissolved in HBSS were then added (10 μl) sequentially into separate wells using the NOVOstar robotic pipettor system. Fluorescence intensity was measured at 0.5 second intervals, for 30 second for each well, using an excitation wavelength of 485 nm (bandwidth 10 nm) and emission of 520 nm (bandwidth 10 nm), cut-off 515 nm. All assays were carried out in triplicates in three independent experiments. Competition curves and EC50 values were derived using the GraphPad Prism software program, version 3.0.

[2] = system: TREM2 (sTREM2, tTREM2) in primary microglia; experiment: Soluble and total TREM2 levels (ELISA) in primary microglia cultures; assay type: cell-based, mouse; conditions: for sTREM2 levels in medium: normalized to PMA 1 μM
Experimental: Primary microglia were isolated from C57BL6 pups (P4-6). Mouse brains were prepared by removing the cerebellum and the meninges. Brain tissue was dissected and single cell suspension was sorted via CD11b Microbeads (Milteny Biotec) to obtain primary microglia. Cells were plated at 4×10^5 cell/ml in 24 well plates and cultured for 24 hours in DMEM supplemented with 10% FBS and 1% Penicillin/Streptomycin.
Mouse primary microglia were prepared from mice postnatal day 4-6 according to standard protocols (Neuronal Tissue Dissociation Kit (P), 130-092-628 and CD11b Microbeads, 130-093-634; Miltenyi Biotec 5 GmbH, Germany) and seeded in 24-well plates at a density of 4×10^5 cells/well. After one day, cell medium was removed and cells were washed once with PBS. Subsequently, cell were treated with compound NSC001 (0-2000 μM) in FBS-free DMEM for 1 or 24 hours. Termination of the assay was carried out by collecting the media and concomitant concentration via centrifugal filter units (Amicon, Z648027-24EA, Sigma 10 Aldrich, Ireland). Cell lysis was performed by adding RIPA lysis buffer (RIPA buffer, R0278, Sigma-Aldrich Co LLC, USA) followed by agitating the cells at 4° C. for 30 min. Primary microglia cell lysates and concentrated cell medium were analyzed for soluble TREM2 (sTREM2; FIG. 3A,B) and total TREM2 (tTREM2; FIG. 3C,D) levels by ELISA (CSBEL024405MO, Cusabio Life Science, China).

[3] = system: human blood-derived macrophages; experiment: Cell viability (PrestoBlue) of blood-derived human macrophages; assay type: cell-based; conditions: for cell viability in regards to medium control: 0-24 h, 1-2000 μM for NSC001 and AF102B; for persistence of the cell viability effect: after 24 hours of treatment
Experimental: Human blood-derived macrophages were isolated from buffy coat via standard protocols (Monocyte isolation Kit, 130091153, Miltenyi Biotec GmbH, Germany) and differentiated for 9 days in M-CSF medium (Ser. No. 12/065,074, Thermo Fisher, Switzerland,) supplemented with 125 ng/ml human GM-CSF (130093864, Miltenyi Biotec GmbH, Germany) to induce M1 macrophage differentiation. Upon differentiation, cells were harvested and re-seeded at 1 Mio cells per 24-well. […] Cell viability was detected by absorbance measurements utilizing the PrestoBlue colorimetric assay (PrestoBlue Cell Viability Reagent, A13261, Thermo Fisher, Switzerland). Cell viability was assessed directly after compound application at 0 h and after 1 h, 3 h and 24 h.

[4] = system: AD patients; conditions: cited from earlier work
[5] = target: T2, M1 receptor (Homo sapiens, UniProt P11229); conditions: in vitro; cited from earlier work
T2 sequence (P11229 1-460): T1 sequence (P11229 1-460)

[6] = target: T1, human M1 mAChR; experiment: Phosphoinositide (PI) hydrolysis in CHOM1 cells; assay type: cell-based; design: expressed in transfected cells; host or cells: CHO (Chinese Hamster Ovary) cells, CHOM1, kept under G418; conditions: for Emax at 1000 µM: read-out: PI hydrolysis maximal response relative to CCh
Experimental: (§1) Rat pheochromocytoma cells (PC12) transfected with rat M1 muscarinic receptor (PC12M1) or CHOM1 cells were seeded in 24-well plates at a density of 4-8×10^5 cells/well. A day later, a fresh growth medium containing 1 μCi/ml [^3H]inositol (myo-[2-^3H(N)] 22 Ci/mmol; purchased from NEN, Boston, MA) was added for 18-24 h (overnight). Then, the medium was removed and the cells were washed twice followed by pre-incubation (10 min) with serum-free medium containing 20 mM Hepes pH 7.4 and 10 mM LiCl. […] Basal activity was determined in cells that were incubated in parallel without the tested compounds. Termination of the assay was carried out by aspirating the media and adding 0.5 ml 2% trichloroacetic acid (TCA) followed by agitating the cells in the cold for 30 min. The TCA extracts were transferred to anion-exchange columns, washed five times with 5 mM inositol, once with 5 ml 5 mM Na2B4O7 in 60 mM formic acid, and the total IPs were eluted with 3 ml 1 M NH4COOH in 0.1 M formic acid. The effluent was collected into scintillation vials and the radioactivity was measured using liquid scintillation counter, 1214 Rackbeta LKB Wallac.

[7] = dry storage conditions; cited from earlier work
[8] = target: T3, rat M1 muscarinic receptor (Rattus norvegicus, UniProt P08482); experiment: Phosphoinositide (PI) hydrolysis in PC12M1 cells; assay type: cell-based
T3 construct: expressed in transfected cells; host or cells: PC12 rat pheochromocytoma cells (PC12M1)
T3 sequence (P08482 1-460): T1 sequence (P11229 1-460) with A5V, T254S, P309S, R320K, A337G, I413V
Experimental: as §1

[9] = system: 3×Tg-AD mice; conditions: cited from earlier work
[10] = 24 hours treatment, hydrochloride
[11] = 24 hours treatment, listed as AF267B

Compound | EC50 [1] [µM] | calcium mobilization response relative to CCh [1] [%] | persistence of the cell viability effect [3] | Aβ levels [5] | Aβ-induced neurotoxicity [5] | tau hyperphosphorylation [5] | αAPPs [5] | Emax at 1000 µM [6] [%] | cell viability in regards to medium control [3] | further results
C[C@@H]1O[C@@]2(CS1)CN1CCC2CC1.Cl (racemic) [AF102B, cis-2-Methylspiro[1,3-oxathiolane-5,3′-quinuclidine] hydrochloride, reference compound] | 1.68 ± 0.33 | 101 | persisted | decrease | block | decrease | elevate | 43 | – | sTREM2 levels in medium [2, 10]: capable of inducing sTREM2 levels; also recorded: significantly enhances; also recorded: significantly increases; cellular tTREM2 levels [2, 10]: not affected; also recorded: unaffected; also recorded: unaltered; concentration at which the compound is active ([2]; features (i) to (iii): sTREM2 secretion, calcium mobilization and/or PI hydrolysis): 10 to 100 µM; cell viability in regards to medium control ([3]; hydrochloride): increased; also recorded: increase in viability; levels of Aβ in the CSF [4]: significantly decreased
CCO [Ethanol] | – | – | – | – | – | – | – | – | reduced cell viability; also recorded: rapidly decreases cell viability | –
CCC1SC2(CCN(C)CC2)NC1=O (stereo not shown) [Form II] | – | – | – | – | – | – | – | – | – | stability of the crystalline form [7]: highly stable under dry storage conditions for at least two years
CC[C@@H]1SC2(CCN(C)CC2)NC1=O [NSC001, (S)-2-ethyl-8-methyl-1-thia-4,8-diaza-spiro[4.5]decan-3-one] | 1.84 ± 0.39 | 113 | persisted | decrease | block | decrease | increase | 63 ± 1 | increased; also recorded: increase in viability | PI hydrolysis / M1 mAChR activation [8]: efficacious; also recorded: efficiently induces PI hydrolysis; cellular tTREM2 levels ([2]; 1 hour treatment): remained constant; also recorded: no effect; sTREM2 levels in medium ([2]; 1 hour treatment): no alteration detected; also recorded: no effect; concentration able to increase sTREM2 levels comparable to PMA ([2]; 24 h, PMA 1 μM): 1 µM; further increase in sTREM2 exceeding the levels upon PMA treatment (1 μM) ([2]; 24 h, higher concentrations 100-2000 μM): not observed; cellular tTREM2 levels ([2]; 24 hours treatment): remain constant; sTREM2 levels in medium ([2]; 24 hours treatment): significant increase; sTREM2 levels in medium [2, 11]: significantly increases; cellular tTREM2 levels [2, 11]: unaltered; cellular tTREM2 levels ([2]; 24 hours treatment, listed as NSC0001): not affected; concentration at which the activity of features (i) to (iii) is displayed ([2]; sTREM2 secretion, calcium mobilization and/or PI hydrolysis): 1 to 5 µM; spatial memory [9]: improve spatial memory; Aβ and tau pathologies ([9]; hippocampus and cortex): reduced; EC50 ([6]; CHOM1 cells): 19 µM
CCCCCCCCCCCCCC(=O)O[C@@H]1[C@@H](C)[C@@]2(O)[C@@H](C=C(CO)C[C@]3(O)C(=O)C(C)=C[C@@H]23)[C@@H]2C(C)(C)[C@]12OC(C)=O [PMA, Phorbol myristate acetate] | – | – | reversed to baseline | – | – | – | – | – | increased | –
